Experimental data from patent US20170360029A1, “Chemical Agent For Controlling Soil Nematode Which Comprises Macrolide-Type Compound” (Maruwa Biochemical Co., Ltd., priority 2012, published 2017).
In brackets after ≈: the same amount, converted by molar mass.

Columns and labels:
[1] = tested on: sweet potato root-knot nematodes; test: Nematode Control Test Example 1: emulsions mixed with infested soil, cherry tomato pot test; type: in vivo; settings: for Aerial part weight / Root-knot parasitism level: cherry tomato, after six weeks, sprayed liquid 10 ppm, concentration in soil 0.3 ppm; for Aerial part weight: mixed with soil; for nematode control effect (in words): concentration of active ingredient in the soil of 0.3 ppm; for Root-knot parasitism level: scale 0-4, mean
Procedure: Each of abamectin 7.5% emulsion from NO. […] One liter of Pleistocene volcanic ash soil in which sweet potato root-knot nematodes had proliferated (the mean of initial sweet potato root-knot nematode density in the fourth-repeated cultivations: 235 nematodes/20 g of soil) was placed in a polyethylene bag and 30 ml of 10 ppm liquid of each chemical agent was mixed therewith while sprayed. The soil mixed with the chemical agent was filled in a pot with a surface area of 162 cm^2. A group where 1 L of soil was mixed and treated with 200 mg of a commercially available organophosphorus-based nematocide fosthiazate 1.5% granule (Ishihara Nemathorin Ace granule, a product from Ishihara Sangyo Kaisha, Ltd.) as a control chemical agent and a group with no treatment were set up. After the treatment with the chemical agent, three stocks of cherry tomato (variety Regina nursery plant with three true leaves, a product from Takii seed Co., Ltcd.) were planted. The test was repeated twice and cultivation management was conducted in a greenhouse. After six weeks, the weight of aerial parts and root-knot parasitism level were investigated.
(§1) In the test below, evaluation criteria for the root-knot parasitism level are as follows:
(§2) The evaluation was conducted using additional intermediate levels of 0.5 between each parasitism levels below at the investigation.
(§3) Parasitism level 0: No root-knots are noted at all.
(§4) Parasitism level 1: The formation of root-knots is noted in not more than 25% of the root.
(§5) Parasitism level 2: The formation of root-knots is noted in more than 25% and not more than 50% of the root.
(§6) Parasitism level 3: The formation of root-knots is noted in more than 50% and not more than 75% of the root.
(§7) Parasitism level 4: The formation of root-knots is noted in more than 75% of the root.

[2] = tested on: sweet potato root-knot nematodes; test: Nematode Control Test Example 2: abamectin and moxidectin emulsions, pot test; type: in vivo; settings: for Aerial part weight: cherry tomato; for Aerial part weight / Root-knot parasitism level: after eight weeks; for Root-knot parasitism level: scale 0-4, mean
Procedure: as §1, §2, §3, §4, §5, §6, §7
Abamectin 7.5% emulsion from NO. 3 in Formulation Example 1 and moxidectin 7.5% emulsion from NO. 38 in Formulation Example 3 were prepared by diluting with tap water (water hardness about 70) at a concentration of active ingredient of 5 ppm, 10 ppm, and 20 ppm. One liter of Pleistocene volcanic ash soil in which sweet potato root-knot nematodes had proliferated (initial sweet potato root-knot nematode density: the mean in fourth-repeated cultivations 260 nematodes/20 g of soil) was placed in a polyethylene bag and 30 ml of each of the above was mixed therewith while sprayed. The soil mixed with the chemical agent was filled in a pot with a surface area of 162 cm^2. A group where 1 L of soil was mixed and treated with 200 mg of a commercially available organophosphorus-based nematocide fosthiazate 1.5% granule as a control chemical agent and a group with no treatment were set up. After the treatment with the chemical agent, four stocks of cherry tomato (variety Regina nursery plant with four true leaves) were planted. The test was repeated twice and cultivation management was conducted in a greenhouse. After eight weeks, the weight of aerial parts and root-knot parasitism level were investigated.

[3] = cited from earlier work
[4] = Non Patent Literature 4; cited from earlier work
[5] = sprayed liquid 5 ppm, concentration in soil 0.15 ppm
[6] = sprayed liquid 10 ppm, concentration in soil 0.3 ppm
[7] = sprayed liquid 20 ppm, concentration in soil 0.6 ppm

Compound | Aerial part weight [1] [g/stock] | nematode control effect (in words) [1] | Root-knot parasitism level [1] | also measured
CO[C@H]1C[C@H](O[C@H]2[C@H](C)O[C@@H](O[C@@H]3/C(C)=C/C[C@@H]4C[C@@H](C[C@]5(C=C[C@H](C)[C@@H](C6CCCCC6)O5)O4)OC(=O)[C@@H]4C=C(C)[C@@H](O)[C@H]5OC/C(=C\C=C\[C@@H]3C)[C@]54O)C[C@@H]2OC)O[C@@H](C)[C@@H]1O [DOR, doramectin] | 3.8 | apparent nematode control effect | 0.58 | 
CO/N=C1\C[C@]2(C[C@@H]3C[C@@H](C/C=C(\C)C[C@@H](C)/C=C/C=C4\CO[C@@H]5[C@H](O)C(C)=C[C@@H](C(=O)O3)[C@]45O)O2)O[C@H](/C(C)=C/C(C)C)[C@H]1C [MOX, moxidectin] | 4.1 |  | 1.33 | Aerial part weight [2, 5]: 44 g/stock; Aerial part weight [2, 6]: 54 g/stock; Aerial part weight [2, 7]: 42 g/stock; Root-knot parasitism level [2, 5]: 2.81; Root-knot parasitism level [2, 6]: 1.75; Root-knot parasitism level [2, 7]: 1.38
CC1=C[C@H]2C(=O)O[C@H]3C[C@@H](C/C=C(\C)C[C@@H](C)/C=C/C=C4\CO[C@H]([C@@H]1O)[C@@]42O)O[C@]1(C3)C[C@H](O)[C@H](C)[C@@H](/C(C)=C/C(C)C)O1 [NEM, nemadectin] | 3.0 |  | 4.00 | 
CO[C@H]1C[C@H](O[C@@H]2/C(C)=C/C[C@@H]3C[C@@H](C[C@]4(CC[C@H](C)[C@@H](C5CCCCC5)O4)O3)OC(=O)[C@@H]3C=C(C)/C(=N/O)[C@H]4OC/C(=C\C=C\[C@@H]2C)[C@]43O)O[C@@H](C)[C@@H]1O [SEL, selamectin] | 2.6 | apparently exhibited fewer effects | 4.00 | 
CNC(=O)O/N=C(\SC)C(=O)N(C)C [oxamyl] |  |  |  | solubility to water [3]: 280 g/L (≈ 1280 mM)
abamectin | 3.7 | apparent nematode control effect | 0.75 | breakdown by soil microorganisms [4]: quickly broken down; soil adsorption [4]: very high; Aerial part weight [2, 5]: 55 g/stock; Aerial part weight [2, 6]: 49 g/stock; Aerial part weight [2, 7]: 45 g/stock; capability of controlling nematodes (in words) ([2]; comparison abamectin vs moxidectin, 0.15-0.6 ppm in soil): slightly better effect than moxidectin; Root-knot parasitism level [2, 5]: 2.38; Root-knot parasitism level [2, 6]: 1.17; Root-knot parasitism level [2, 7]: 1.00
emamectin | 3.3 | apparently exhibited fewer effects | 3.92 | 
ivermectin | 3.7 | apparent nematode control effect | 0.83 | 
lepimectin | 3.1 |  | 4.00 | 
milbemectin | 2.5 |  | 4.00 | solubility to water [3]: 0.00088 g/L
